Assay results: US20260284062A1 (Konstantin Pavlovich GARYAEV, priority 2023, published 2026)

Experiments:
[1] = 0.5% Novocaine, 5.0-10.0 ml, in medicinal mixture administered into the recommended sites; cited from earlier work
[2] = system: myocardial infarction, ischemic stroke and peripheral thrombosis; conditions: oral antiplatelet therapy with acetylsalicylic acid and clopidogrel; cited from earlier work
[3] = Patient history of statin treatment (tolerability); format: in vivo, human; conditions: history of patient M. (Example 1)

Row | Structure (SMILES) | reduction of the risk of myocardial infarction, ischemic stroke and peripheral thrombosis [2] | further results
1 | CCN(CC)CCOC(=O)c1ccc(N)cc1 [Novocaine] | – | undesirable effects [1]: reduction of arterial pressure up to collapse, dizziness, headache, arrhythmia
2 | CC(=O)Oc1ccccc1C(=O)O [acetylsalicylic acid] | 20-25% | –
3 | COC(=O)[C@H](c1ccccc1Cl)N1CCc2sccc2C1 [clopidogrel] | 20-25% | –
4 | CCC(C)(C)C(=O)O[C@H]1C[C@@H](C)C=C2C=C[C@H](C)[C@H](CC[C@@H]3C[C@@H](O)CC(=O)O3)[C@H]21 [simvastatin] | – | tolerability of earlier treatment [3]: discontinued due to side effects
